Data taken from patent US8557859B2, “Immunomodulatory compositions” (Summit (Wales) Limited, priority 2003, dated 2013).
Where two headings read alike, the source gives them in different places.

Tests used:
[1] = tested on: Spleen cells; test: Cytokine modulation in spleen cells: splenocyte IFN-γ production; format: cell-based, BALB/c mice; details: for IFN-γ: splenocytes
Experimental: BALB/c male and female mice bred and maintained at the University of Strathclyde under conventional conditions were used at varying age.
The mouse spleen was removed aseptically and placed in a sterile petri dish containing 5 mls of complete medium (RPMI, 1% L-Glutamine, 1% Penicillin/Streptomycin and 10% foetal calf serum). Cells suspensions were prepared by using the end of a syringe and grinding the spleen through a wire mesh. The cell suspension was then centrifuged at 1000 rpm for 5 minutes. To remove the erythrocytes, the cell pellet was resuspended in Boyle's solution (Tris 0.17M & Ammonium Chloride 0.16M) and centrifuged again for 5 minutes. The pellet was then washed in medium a further two times, then resuspended in 3 mls medium. A cell count was then carried out.
All spleen cell experiments were carried out in 96-well tissue culture plates. […] Unstimulated wells contained 100 μl of cells and 100 μl of medium. The stimulated wells contained 100 μl of cells plus 50 μl of LPS at 1 μg/ml or 50 μl anti-CD3 at 0.5 μg/ml and 50 μl of medium. The remaining wells contained 100 μl cells, 50 μl of MNLP compound and either 50 μl of anti-CD3 or medium alone.
The appropriate Mabs and standards were used according to the protocol described for IL-12 (described in Example 1, above).

[2] = tested on: Dendritic cells; test: Induction of IL-12 secretion in dendritic cells (ELISA); format: cell-based, BALB/c mice; details: for IL-12 RELEASE: dendritic cells, compounds 50 μg/ml and 20 μg/ml, 24 hrs (or 48 hrs)
Experimental: BALB/c male and female mice bred and maintained at the University of Strathclyde under conventional conditions were used at 8 weeks old.
Bone marrow was obtained from the femurs of mice. The femurs were washed in 70% ethanol and placed in a clean petri dish. Dendritic cell (DC) medium (2.5% granulocyte-macrophage colony-stimulating factor (GM-CSF), 10% […] foetal calf serum, 1% L-glutamine, 1% Penicillin/Streptomycin in RPMI-1640 medium) was injected into the bone marrow of the femur by a pumping action and the cells and medium were collected. 1 ml of the cells in medium was added to a 75 cm^2 flask with 15 mls of DC medium. The flasks were then incubated at 37° C., 5% CO2 to allow DC growth and development. After 5 days an additional 10 mls of DC medium was added.
After 10 days of incubation of bone marrow with GM-CSF, the dendritic cells were harvested. This process was carried out in a tissue culture hood. The contents of the flasks were poured into centrifuge tubes to ensure collection of floating DCs. Approximately 10 mls of cooled phosphate buffered saline (PBS) was added to each empty flask, the flasks gently agitated and the contents collected. […] The collected contents of the flasks were centrifuged for 5 minutes at 200 g and the pellet resuspended in 2 mls of DC medium without GM-CSF. A cell count was then carried out.
Cells were counted using a haemocytometer. Approximately 20 μl of the resuspended cells was pipetted into the chamber of the haemocytometer, the cells were adjusted to the correct cell concentration (approx. 5×10^4, and not less than 1×10^4, per well) and then plated out for assay.
The plates were incubated overnight at 37° C. with 5% CO2 and allowed to settle (harvesting stimulates them). The next day the compounds (50 μg/ml and 20 μg/ml) and controls were added then again incubated at 37° C. with 5% CO2 for 24 hrs (or 48 hrs). Harvesting and addition of the compounds was all done in a hood. The plates were then frozen to kill the cells and once defrosted the supernatant analysed as described below.
Using an enzyme linked immunosorbent assay (ELISA) IL-12 concentration in the supernatants was measured. All reagents used in this assay were from PharMingen. A 96-well flat-bottomed ELISA plate was coated with purified rat anti-mouse IL-12 (p40/p70) MAb (Cat no. 554478) at 2 μg/ml diluted in PBS pH 9.0 at 50 μl/well. The plate was then covered in cling film and incubated at 4° C. Following incubation the plate was washed 3 times in washing buffer and dried. 200 μl of blocking buffer (10% foetal calf serum in PBS pH 7.0) was added to each well then covered in cling film and incubated at 37° C. for 45 minutes. The plate was washed 3 times and dried. Recombinant mouse Il-12 standard was added at 30 μl in duplicate wells, starting at 10 ng/ml then 5, 2.5, 1.25, 0.625, 0.31, 0.156, 0.078, 0.039, 0.020, 0.010, 0.005 ng/ml. Standards were diluted in blocking buffer. The supernatant samples were added in at 50 μl/well. The plate was then covered in cling film and incubated for 2 hours at 37° C. The plate was then washed 4 times, dried and the secondary antibody added.
Biotin labelled anti-mouse IL-12 (p40/p70) MAb (Cat no. 18482D) at 1 μg/ml (diluted in blocking buffer) was added to each well at a volume of 100 μl/well. The plate was covered in cling film and incubated at 37° C. for 1 hour. The plate was then washed 5 times, dried and the conjugate added. Streptavidin-AKP (Cat no. 13043E) at 100 μl/well was added at a dilution of 1/2000 in blocking buffer followed by incubation under cling film at 37° C. for 45 minutes.
The plate was finally washed 6 times, dried and the substrate added. pNPP (Sigma) in glycine buffer at 1 mg/ml was added at 100 μl/well. The plate was then covered in tinfoil, incubated at 37° C. and checked every 30 minutes for a colour change.
The plate was then read at 405 nm using a SPECTRAmax 190 spectrometer.

[3] = tested on: α-D-glucosidase; test: Glycosidase inhibition, α-D-glucosidase (Bacillus); format: biochemical, Bacillus stearothermophilus; details: 1 mg/ml
Experimental: (§1) All enzymes were purchased from Sigma, as were the appropriate p-nitrophenyl substrates. Assays were carried out in microtitre plates. Enzymes were assayed in 0.1 M citric acid/0.2M di-sodium hydrogen phosphate (McIlvaine) buffers at the optimum pH for the enzyme. All assays were carried out at 20° C. For screening assays the incubation assay consisted of 10 μl of enzyme solution, 10 μl of inhibitor solution (made up in water) and 50 μl of the appropriate 5 mM p-nitrophenyl substrate (3.57 mM final conc.) made up in McIlvaine buffer at the optimum pH for the enzyme.
(§2) The reactions were stopped with 0.4M glycine (pH 10.4) during the exponential phase of the reaction, which was determined at the beginning of the assay using blanks with water, which were incubated for a range of time periods to measure the reaction rate using 5 mM substrate solution. Endpoint absorbances were read at 405 nm with a Biorad microtitre plate reader (Benchmark). Water was substituted for the inhibitors in the blanks.

[4] = tested on: N-acetyl-β-D-glucosaminidase; test: Glycosidase inhibition, N-acetyl-β-D-glucosaminidase; format: biochemical, Bovine kidney; details: 1 mg/ml
Experimental: as §1, §2

[5] = tested on: Dendritic cells; format: cell-based, BALB/c mice
Experimental: Bone marrow was obtained from the femurs of mice. The femurs were washed in 70% ethanol and placed in a clean petri dish. Dendritic cell (DC) medium (2.5% granulocyte-macrophage colony-stimulating factor (GM-CSF), 10% heat and activated foetal calf serum, 1% L-glutamine, 1% Penicillin/Streptomycin in RPMI-1640 medium) was injected into the bone marrow of the femur by a pumping action and the cells and medium were collected. 1 ml of the cells in medium was added to a 75 cm^2 flask with 15 mls of DC medium. The flasks were then incubated at 37° C., 5% CO2 to allow DC growth and development. After 5 days an additional 10 mls of DC medium was added.
After 10 days of incubation of bone marrow with GM-CSF, the dendritic cells were harvested. This process was carried out in a tissue culture hood. The contents of the flasks were poured into centrifuge tubes to ensure collection of floating DCs. Approximately 10 mls of cooled phosphate buffered saline (PBS) was added to each empty flask, the flasks gently agitated and the contents collected. This ensured recovery of adhesive DCs. […]
Cells were counted using a haemocytometer. […]
The plates were incubated overnight at 37° C. with 5% CO2 and allowed to settle (harvesting stimulates them). […] The plates were then frozen to kill the cells and once defrosted the supernatant analysed as described below.

[6] = tested on: glycosidase enzymes of Table 4.1; test: Glycosidase inhibition, all enzymes tested (Table 4.1); format: biochemical; details: 1 mg/ml; result in words
Experimental: as §1, §2

[7] = tested on: spleen cells from Leishmania major infected BALB/c mice; test: Non-healing leishmaniasis model: splenocyte IFN-γ; format: cell-based; details: for IFN-γ: Table 10.1
[8] = tested on: spleen cells from Leishmania major infected BALB/c mice; test: Non-healing leishmaniasis model: splenocyte IL-5; format: cell-based
[9] = tested on: Naringinase; test: Glycosidase inhibition, Naringinase; format: biochemical, Penecillium decumbens; details: 1 mg/ml
Experimental: as §1, §2

[10] = tested on: β-D-glucosidase; test: Glycosidase inhibition, β-D-glucosidase; format: biochemical, Almonds (Prunus sp.); details: for % inhibition glucosidase: 1 mg/ml
Experimental: as §1, §2

[11] = tested on: β-D-galactosidase; test: Glycosidase inhibition, β-D-galactosidase; format: biochemical, Bovine liver; details: 1 mg/ml; second galactosidase line
Experimental: as §1, §2

[12] = tested on: B16-F10 tumour cells; test: Control of lung metastasis in mice; format: in vivo, Mice (C57/bl6); details: 50 mg/kg s/c on days 2 and 4; lungs on day 14
Experimental: Mice (C57/bl6 under i/p ketamine anaesthesia) were challenged i/v (tail vein) with 5×10^4 B16-F10 tumour cells in a final volume of 100 μl per mouse on day 0. Test compounds (50 mg/kg in 200 μl sterile non-pyrogenic saline) were administered s/c (right flank) on days 2 and 4. On day 14 the mice were sacrifices and the lungs dissected and stained in Indian ink solution (150 ml bidistilled water, 30 ml India Ink, 4 drops NH4OH) for 10 minutes then fixed for at least 24 hr in Fakete's solution (90 ml 37% formaldehyde, 900 ml 70% EtOH and 45 ml glacial acetic acid). The metastases in the stained and fixed lungs could then be visualized, counted and photographed.

[13] = target: T1, α-D-glucosidase (Saccharomyces cerevisiae, UniProt P53341); test: Glycosidase inhibition, α-D-glucosidase (yeast); format: biochemical, Saccharomyces cerevisiae (Baker's yeast); details: at a concentration of 800 μM
T1 construct: purchased Sigma
Experimental: as §1, §2

[14] = target: T2, rabbit small intestine sucrase (Oryctolagus cuniculus, UniProt P07768); test: Inhibition of rabbit small intestine sucrase; format: biochemical; details: at a concentration of 700 μM
T2 construct: from tissue; host or cells: rabbit small intestine

[15] = target: rabbit gut mucosa α-D-glucosidase; test: Inhibition of rabbit gut mucosa α-D-glucosidase; format: biochemical
[16] = tested on: Na^+-dependent D-glucose uptake into ovine intestinal brush border membrane vesicles; test: Effect on glucose transport (competition assay with labelled D-glucose); format: biochemical
[17] = tested on: α-mannosidase; details: background statement; cited from earlier work

T2 sequence (P07768 whole entry): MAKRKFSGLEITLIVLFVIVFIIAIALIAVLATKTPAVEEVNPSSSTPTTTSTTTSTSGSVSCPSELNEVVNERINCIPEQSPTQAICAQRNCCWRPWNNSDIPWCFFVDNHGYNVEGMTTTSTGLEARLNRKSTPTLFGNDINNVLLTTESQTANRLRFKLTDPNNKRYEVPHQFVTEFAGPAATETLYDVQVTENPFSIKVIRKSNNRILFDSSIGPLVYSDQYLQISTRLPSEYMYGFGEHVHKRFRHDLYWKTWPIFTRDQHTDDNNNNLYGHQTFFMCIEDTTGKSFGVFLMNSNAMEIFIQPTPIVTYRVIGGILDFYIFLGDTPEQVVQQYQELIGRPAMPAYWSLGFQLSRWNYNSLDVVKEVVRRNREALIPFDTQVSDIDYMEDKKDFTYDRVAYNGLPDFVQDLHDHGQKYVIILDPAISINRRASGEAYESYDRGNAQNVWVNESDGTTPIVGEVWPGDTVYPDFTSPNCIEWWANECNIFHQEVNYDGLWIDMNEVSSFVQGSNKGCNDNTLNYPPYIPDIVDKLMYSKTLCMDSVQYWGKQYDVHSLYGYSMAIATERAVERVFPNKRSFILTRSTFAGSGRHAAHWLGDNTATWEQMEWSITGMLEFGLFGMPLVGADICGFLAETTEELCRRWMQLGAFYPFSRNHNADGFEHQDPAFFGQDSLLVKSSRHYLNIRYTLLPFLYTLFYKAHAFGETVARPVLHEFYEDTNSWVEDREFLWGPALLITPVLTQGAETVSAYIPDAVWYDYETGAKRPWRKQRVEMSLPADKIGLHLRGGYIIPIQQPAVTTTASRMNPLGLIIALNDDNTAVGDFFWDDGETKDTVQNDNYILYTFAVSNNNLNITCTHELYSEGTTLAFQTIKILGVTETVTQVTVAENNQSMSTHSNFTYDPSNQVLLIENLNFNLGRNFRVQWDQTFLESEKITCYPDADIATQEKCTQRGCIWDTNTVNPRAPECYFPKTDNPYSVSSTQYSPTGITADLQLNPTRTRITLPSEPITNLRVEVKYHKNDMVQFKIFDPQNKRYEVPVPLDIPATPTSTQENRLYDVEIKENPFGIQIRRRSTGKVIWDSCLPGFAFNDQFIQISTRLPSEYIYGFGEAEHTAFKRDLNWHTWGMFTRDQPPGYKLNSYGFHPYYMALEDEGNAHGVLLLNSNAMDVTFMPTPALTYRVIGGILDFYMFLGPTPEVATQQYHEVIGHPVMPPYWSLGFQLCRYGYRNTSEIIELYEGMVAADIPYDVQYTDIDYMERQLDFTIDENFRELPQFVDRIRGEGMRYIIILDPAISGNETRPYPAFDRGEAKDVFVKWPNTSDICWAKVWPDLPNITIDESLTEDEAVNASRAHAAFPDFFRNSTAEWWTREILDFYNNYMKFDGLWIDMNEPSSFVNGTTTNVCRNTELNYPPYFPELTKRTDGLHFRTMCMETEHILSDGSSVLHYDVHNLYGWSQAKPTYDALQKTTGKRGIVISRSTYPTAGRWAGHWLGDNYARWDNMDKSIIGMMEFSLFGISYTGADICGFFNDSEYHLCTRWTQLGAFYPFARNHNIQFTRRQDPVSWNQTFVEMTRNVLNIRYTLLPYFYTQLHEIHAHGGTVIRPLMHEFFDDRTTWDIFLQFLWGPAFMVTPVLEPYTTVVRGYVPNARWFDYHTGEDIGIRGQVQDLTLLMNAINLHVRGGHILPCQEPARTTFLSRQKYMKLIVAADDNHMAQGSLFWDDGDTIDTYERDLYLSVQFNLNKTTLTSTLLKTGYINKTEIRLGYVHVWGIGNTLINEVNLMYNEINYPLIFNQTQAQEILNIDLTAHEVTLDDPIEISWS
T1 sequence (P53341 whole entry): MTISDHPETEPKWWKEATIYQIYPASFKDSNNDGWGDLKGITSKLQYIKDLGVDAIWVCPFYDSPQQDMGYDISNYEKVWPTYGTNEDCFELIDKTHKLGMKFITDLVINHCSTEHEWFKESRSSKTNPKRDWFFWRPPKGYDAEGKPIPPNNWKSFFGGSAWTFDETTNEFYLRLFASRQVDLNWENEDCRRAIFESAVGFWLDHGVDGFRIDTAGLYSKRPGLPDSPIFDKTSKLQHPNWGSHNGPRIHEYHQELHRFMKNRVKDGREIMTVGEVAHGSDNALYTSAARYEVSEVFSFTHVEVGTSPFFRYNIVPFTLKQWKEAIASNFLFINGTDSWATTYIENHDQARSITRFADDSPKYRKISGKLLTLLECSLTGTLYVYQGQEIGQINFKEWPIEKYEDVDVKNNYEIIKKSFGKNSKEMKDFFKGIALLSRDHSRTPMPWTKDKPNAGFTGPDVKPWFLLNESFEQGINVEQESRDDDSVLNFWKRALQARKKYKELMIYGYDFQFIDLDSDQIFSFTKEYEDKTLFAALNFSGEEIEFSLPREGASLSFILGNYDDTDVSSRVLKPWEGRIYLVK

OC[C@H]1[C@@H](O)[C@H](O)[C@H]2[C@@H](O)[C@@H](O)CN21 [3,7-diepi-casuarine (10), (1R,2R,3S,6S,7R,7aR)-3-(Hydroxymethyl)-1,2,6,7-tetrahydroxypyrrolizidine]
IFN-γ ([1]; Table 3.1, treatment alone): 0.22 ng/mL | IL-12 RELEASE [2]: Yes | % inhibition gluc (Bacillus) [3]: −7% | % inhibition N-acetyl-β-gluc [4]: −6% | IL-2 (units/ml) ([5]; compound + LPS): 0.69 units/ml | IL-2 (units/ml) ([5]; treatment alone): 0.00 units/ml | inhibition of any of the enzymes tested [6]: do not significantly inhibit any of the enzymes tested | IFN-γ ([7]; compound + L. major Ag): 5.5 ng/mL | IFN-γ ([7]; treatment alone): ~0.5 ng/mL | IFN-γ (healing Th1 response) ([7]; result in words): enhances IFN-γ | IL-5 ([8]; Table 10.2, compound + αCD3): 150 pg/mL | Th2 response (IL-5) ([8]; result in words): suppressing the Th2 response (via downregulation of the Th2 cytokine IL-5) | % inhibition Naringinase [9]: 6% | % inhibition glucosidase [10]: 5%

OC[C@H]1[C@@H](O)[C@H](O)[C@H]2[C@H](O)[C@@H](O)CN21 [3-epi-casuarine (14), 3-epi-casuarine]
IL-12 RELEASE [2]: Yes | % inhibition galactosidase [11]: 6% | % inhibition gluc (Bacillus) [3]: 12% | % inhibition N-acetyl-β-gluc [4]: −1% | % inhibition Naringinase [9]: 21% | Metastatic morphology [12]: Metastasis restricted to apical tip of lung | % inhibition glucosidase [10]: 56%

O[C@H]1[C@H](O)[C@@H](O)CN2CC[C@H](O)[C@H]12 [Castanospermine (20), Castanospermine, reference compound]
IFN-γ ([1]; Table 3.2, compound + αCD3): 9.0 ng/mL | IFN-γ ([1]; Table 3.2, treatment alone): <1.0 ng/mL | IFN-γ secretion/production in splenocytes ([1]; result in words): inhibits the production of this cytokine | IL-12 RELEASE [2]: No | inhibition of yeast α-D-glucosidase [13]: not being inhibitory | % inhibition galactosidase [11]: 16% | % inhibition gluc (Bacillus) [3]: 6% | inhibition of rabbit small intestine sucrase [14]: inhibited | % inhibition N-acetyl-β-gluc [4]: 16% | IC50 [15]: 8 µM | % inhibition Naringinase [9]: 39% | Glucose uptake ([16]; initial rate, control 240): 225 pmol/s/mg | glucose transport ([16]; result in words): slightly inhibited | % inhibition glucosidase [10]: 88% | Ki ([10]; read-out: Ki with almond 6-D-glucosidase): 9 µM

O[C@H]1[C@H]2[C@H](O)CCCN2C[C@H]1O [Swainsonine (4), Swainsonine]
IL-12 RELEASE [2]: No | IL-12 secretion ([2]; tested at 50 μg/ml): failed to induce IL-12 secretion | inhibition of α-mannosidase [17]: potent and specific inhibitor of α-mannosidase
